pIC50: −log10 of the molar value.
Columns and labels:
[1] = biological target: T1, Dihydroorotate dehydrogenase (Plasmodium falciparum, UniProt Q54A96); test: Inhibition of Plasmodium falciparum DHODH using dihydroorotate substrate by DCIP assay
T1 sequence (Q54A96 whole entry): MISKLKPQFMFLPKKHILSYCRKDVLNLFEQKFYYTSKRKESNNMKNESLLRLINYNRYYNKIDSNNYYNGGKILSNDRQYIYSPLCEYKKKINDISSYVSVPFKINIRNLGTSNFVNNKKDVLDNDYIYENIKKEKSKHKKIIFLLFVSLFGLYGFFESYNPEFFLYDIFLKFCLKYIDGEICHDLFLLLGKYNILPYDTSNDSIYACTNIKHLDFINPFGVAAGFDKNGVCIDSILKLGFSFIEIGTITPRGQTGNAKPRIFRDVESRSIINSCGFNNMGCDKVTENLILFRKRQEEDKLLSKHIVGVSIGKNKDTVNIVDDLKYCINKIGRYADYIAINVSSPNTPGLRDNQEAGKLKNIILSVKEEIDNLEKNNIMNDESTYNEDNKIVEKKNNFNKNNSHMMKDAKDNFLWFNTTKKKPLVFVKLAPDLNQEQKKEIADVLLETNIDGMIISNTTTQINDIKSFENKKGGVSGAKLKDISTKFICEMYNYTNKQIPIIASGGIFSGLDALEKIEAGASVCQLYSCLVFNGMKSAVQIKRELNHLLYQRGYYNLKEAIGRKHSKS

[2] = Retention time of the compound; format: physicochemical
[3] = biological target: Dihydroorotate dehydrogenase (quinone), mitochondrial (Homo sapiens, UniProt Q02127)
Description: Inhibition of human DHODH using dihydroorotate substrate by DCIP assay

Rattus norvegicus = test: Toxicity in ip dosed bovine type-2 collagen-induced Wistar rat arthritic model assessed as change in body weight administered as qd for 28 days starting day after immunization; format: organism-based; details: in vivo, 672 h

Chain of Dihydroorotate dehydrogenase (quinone), mitochondrial (Q02127 whole entry): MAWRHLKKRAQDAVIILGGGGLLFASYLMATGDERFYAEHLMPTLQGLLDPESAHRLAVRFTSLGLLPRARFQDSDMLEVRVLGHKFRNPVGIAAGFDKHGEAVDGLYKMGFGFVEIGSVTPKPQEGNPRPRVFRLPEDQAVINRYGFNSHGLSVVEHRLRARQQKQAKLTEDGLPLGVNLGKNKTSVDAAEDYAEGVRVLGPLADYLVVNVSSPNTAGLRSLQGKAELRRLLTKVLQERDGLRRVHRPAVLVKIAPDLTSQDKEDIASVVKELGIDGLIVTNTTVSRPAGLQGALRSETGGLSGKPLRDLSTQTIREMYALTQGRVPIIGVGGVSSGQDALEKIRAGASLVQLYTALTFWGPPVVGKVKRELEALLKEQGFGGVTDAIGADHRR

| SMILES | pIC50 [1] | Retention_time [2] [min] | pIC50 [3] | Activity (Rattus norvegicus) |
| --- | --- | --- | --- | --- |
| CC(=O)c1sc(Nc2ccc(C)c(C)c2)nc1C | 5.83 | 12.41 | 5.41 |  |
| CCOC(=O)c1sc(Nc2ccc3ccccc3c2)nc1-c1ccccc1 | < 5.00 |  |  |  |
| CCOC(=O)c1sc(Nc2ccc(C)c(C)c2)nc1C | < 5.00 | 16.56 |  |  |
| CCOC(=O)c1sc(Nc2ccc(-c3ccccc3)cc2)nc1-c1ccccc1 | < 5.00 | 10.81 | < 5.00 |  |
| CCOC(=O)c1sc(Nc2ccc3ccccc3c2)nc1C | < 5.00 | 9.01 |  |  |
| CC(=O)c1sc(Nc2ccccc2)nc1C | < 5.00 | 9.94 | < 5.00 |  |
| CCOC(=O)c1sc(Nc2ccc(Cl)c(C(F)(F)F)c2)nc1NC(=O)c1ccccc1 | < 5.00 | 8.06 | < 5.00 |  |
| CCOC(=O)c1sc(Nc2ccc(C)c(F)c2)nc1-c1ccccc1 | < 5.00 | 9.56 |  |  |
| CCOC(=O)c1sc(Nc2ccc3c(c2)OCO3)nc1-c1ccccc1 | < 5.00 | 7.28 |  |  |
| CCOC(=O)c1sc(Nc2ccc(Cl)cc2)nc1-c1ccccc1 | < 5.00 | 9.69 |  |  |
| CCOC(=O)c1sc(Nc2ccc(Cl)c(C(F)(F)F)c2)nc1-c1ccccc1 | < 5.00 | 11.06 |  |  |
| CCOC(=O)c1sc(Nc2ccc(C)c(Cl)c2)nc1-c1ccccc1 | < 5.00 | 10.7 |  |  |
| CC(=O)c1sc(Nc2ccc(Br)c(C(F)(F)F)c2)nc1C | < 5.00 | 16.48 | 5.72 |  |
| CCOC(=O)c1sc(Nc2ccc(Cl)c(C(F)(F)F)c2)nc1N | < 5.00 | 7.1 | < 5.00 |  |
| CCOC(=O)c1sc(Nc2ccc(C)c(Cl)c2)nc1C | < 5.00 | 18.44 |  |  |
| CCOC(=O)c1sc(Nc2ccc3cc4ccccc4cc3c2)nc1-c1ccccc1 | < 5.00 | 12.09 |  |  |
| CCOC(=O)c1sc(Nc2ccc(C)c(C)c2)nc1-c1ccccc1 | < 5.00 | 9.84 |  |  |
| CCOC(=O)c1sc(Nc2ccc(-c3cccc(OC)c3)cc2F)nc1-c1ccccc1 | < 5.00 | 10.96 | < 5.00 |  |
| CCOC(=O)c1sc(Nc2ccc(Br)c(C(F)(F)F)c2)nc1-c1ccccc1 | < 5.00 | 11.33 |  |  |
| CCOC(=O)c1sc(Nc2ccc(Cl)c(C(F)(F)F)c2)nc1NC(=O)C1CC1 | < 5.00 | 7.75 |  |  |
| CCOC(=O)c1sc(Nc2ccc(C(F)(F)F)cc2)nc1-c1ccccc1 | < 5.00 | 9.86 |  |  |
| CCOC(=O)c1sc(Nc2ccc(OC)cc2)nc1-c1ccccc1 | < 5.00 | 7.54 |  |  |
| CCOC(=O)c1sc(Nc2ccc(-c3cccc(OC)c3)cc2)nc1-c1ccccc1 | < 5.00 | 10.45 | < 5.00 |  |
| CCOC(=O)c1sc(Nc2ccc(OCc3ccccc3)c(Cl)c2)nc1-c1ccccc1 | < 5.00 | 10.92 | < 5.00 |  |
| CCOC(=O)c1sc(Nc2ccc3c(c2)CCCC3)nc1-c1ccccc1 | < 5.00 | 11.36 |  |  |
| CCOC(=O)c1sc(Nc2ccc(OCc3c(F)cccc3Cl)c(Cl)c2)nc1-c1ccccc1 | < 5.00 | 9.95 | < 5.00 |  |
| CC(=O)c1sc(Nc2ccc(Cl)c(C(F)(F)F)c2)nc1C | 5.37 | 16.17 | 5.63 |  |

| SMILES | pIC50 [1] | Retention_time [2] [min] | pIC50 [3] | Activity (Rattus norvegicus) |
| --- | --- | --- | --- | --- |
| CCOC(=O)c1sc(Nc2ccc(C)c(Cl)c2)nc1C(C)(C)C | < 5.00 | 13.12 |  |  |
| CC(=O)c1sc(Nc2ccc(C(C)(C)C)cc2)nc1C | < 5.00 | 14.61 | 5.44 |  |
| CCOC(=O)c1sc(Nc2ccc(Br)cc2C)nc1-c1ccccc1 | < 5.00 | 10.27 | < 5.00 |  |
| CC(=O)c1sc(Nc2ccc3cc4ccccc4cc3c2)nc1C | < 5.00 | 16.95 | < 5.00 |  |
| CC(=O)c1sc(Nc2ccc(C)c(Cl)c2)nc1C | 6.20 | 14.38 | 5.40 |  |
| CCOC(=O)c1sc(Nc2ccc(C)c(C)c2)nc1NC(=O)C1CC1 | < 5.00 | 7.61 | < 5.00 |  |
| CC(=O)c1sc(Nc2ccc(C)c(F)c2)nc1C | < 5.00 | 5.82 | < 5.00 |  |
| CN(Cc1cnc2nc(N)nc(N)c2n1)c1ccc(C(=O)N[C@@H](CCC(=O)O)C(=O)O)cc1 [METHOTREXATE] |  |  |  | Non-toxic |
| CCOC(=O)c1sc(Nc2ccc(C)c(C)c2)nc1C1CC1 | < 5.00 | 10.18 |  |  |
| CCOC(=O)c1sc(Nc2ccc(C)c(F)c2)nc1C1CC1 | < 5.00 | 9.96 |  |  |
| CCOC(=O)c1sc(Nc2ccc(Oc3ccccc3)c(Cl)c2)nc1-c1ccccc1 | < 5.00 | 11.24 | < 5.00 |  |
| CCOC(=O)c1sc(Nc2ccc(Cl)c(Cl)c2)nc1-c1ccccc1 | < 5.00 | 11.11 |  |  |
| CCOC(=O)c1sc(Nc2ccc(C(C)(C)C)cc2)nc1-c1ccccc1 | < 5.00 | 21.11 |  |  |
| CC(=O)c1sc(Nc2ccc3ccccc3c2)nc1C | 6.06 | 13.39 | 6.25 |  |
| CC(=O)c1sc(Nc2ccc(Br)cc2)nc1C | < 5.00 | 13.52 | < 5.00 |  |
| CCOC(=O)c1sc(Nc2ccc(C)c(C)c2)nc1N | < 5.00 | 9.57 |  |  |
| CCOC(=O)c1sc(Nc2ccc(C)c(C)c2)nc1NC(=O)c1ccccc1 | < 5.00 | 7.51 |  |  |
| CCOC(=O)c1sc(Nc2cc(Cl)cc(Cl)c2)nc1-c1ccccc1 | < 5.00 | 11.83 |  |  |
| CCOC(=O)c1sc(Nc2ccc(C)c(C)c2)nc1C(C)(C)C | < 5.00 | 12.16 |  |  |
| CCOC(=O)c1sc(Nc2ccc(Br)cc2)nc1C | 5.61 | 17.56 |  |  |
| CCOC(=O)c1sc(Nc2ccccc2)nc1-c1ccccc1 | < 5.00 | 7.96 |  |  |
| CCOC(=O)c1sc(Nc2ccc(-c3ccccc3)cc2F)nc1-c1ccccc1 | < 5.00 | 11.33 | < 5.00 |  |
| CCOC(=O)c1sc(Nc2ccc3c(c2)CCC3)nc1-c1ccccc1 | < 5.00 | 10.42 |  | Non-toxic |
| CCOC(=O)c1sc(Nc2c(F)cc(-c3cccc(OC)c3)cc2F)nc1-c1ccccc1 | < 5.00 | 9.51 |  |  |
| CCOC(=O)c1sc(Nc2ccc(C)c(F)c2)nc1C | < 5.00 | 8.14 |  |  |
| CCOC(=O)c1sc(Nc2ccc(C)c(F)c2)nc1C(C)(C)C | < 5.00 | 11.92 |  |  |
| CCOC(=O)c1sc(Nc2ccc(C)c(Cl)c2)nc1C1CC1 | < 5.00 | 11.22 |  |  |

From ChEMBL document CHEMBL3407421, “Design, synthesis, X-ray crystallographic analysis, and biological evaluation of thiazole derivatives as potent and selective inhibitors of human dihydroorotate dehydrogenase” (J Med Chem, 2015)
